Reference: paper PMC10041525, “New Dual Inhibitors of Bacterial Topoisomerases with Broad-Spectrum Antibacterial Activity and In Vivo Efficacy against Vancomycin-Intermediate Staphylococcus aureus” (Journal of Medicinal Chemistry, 2023)
Where two headings read alike, the source gives them in different places.

Assays:
Format in all cases: cell-based
[1] = test system: 100 A. baumannii strains (50 MDR, 50 non-MDR); assay: MIC broth microdilution at IHMA Europe, panel of 100 strains; details: for MIC / MIC50 / MIC90: Acinetobacter baumannii
P. aeruginosa ATCC 27853 = assay: IHMA QC MIC
E. coli ATCC 35218 = assay: IHMA QC MIC; details: Escherichia coli, ATCC35218, read-out: MIC (QC, repeated tests)
Protocol: (§1) The panel of Hungarian clinical isolates and controls measured following the same method as detailed above, and albeit measurements were carried out in 384-well microtiter plates (Corning Inc.).

A. baumannii ATCC 17978 = assay: IHMA QC MIC; details: Acinetobacter baumannii, ATCC17978, read-out: MIC (QC, repeated tests)
Protocol: as §1

H. influenzae ATCC 49247 = assay: IHMA QC MIC; details: Haemophilus influenzae
Description: (§2) Supplement jm2c01905_si_004.xlsx, sheet "QC" | column: MIC [µg/mL]

H. influenzae ATCC 49766 = assay: IHMA QC MIC
Description: as §2

S. pneumoniae ATCC 49619 = assay: IHMA QC MIC
Description: as §2

C[C@H]1COc2c(N3CCN(C)CC3)c(F)cc3c(=O)c(C(=O)O)cn1c23.C[C@H]1COc2c(N3CCN(C)CC3)c(F)cc3c(=O)c(C(=O)O)cn1c23.O [Levofloxacin, levofloxacin]
MIC ([1]; A. baumannii IHMA 2180134, Malaysia 2020, Non-MDR): 0.5 µg/mL | MIC ([1]; A. baumannii IHMA 2180142, Malaysia 2020, MDR): 4 µg/mL | MIC ([1]; A. baumannii IHMA 2181370, Morocco 2020, MDR): 8 µg/mL | MIC ([1]; A. baumannii IHMA 2183729, Argentina 2020, MDR): 8 µg/mL | MIC ([1]; A. baumannii IHMA 2183849, Argentina 2020, Non-MDR): ≤ 0.25 µg/mL | MIC ([1]; A. baumannii IHMA 2184382, Japan 2020, Non-MDR): ≤ 0.25 µg/mL | MIC ([1]; A. baumannii IHMA 2193375, Venezuela 2020, MDR): 8 µg/mL | MIC ([1]; A. baumannii IHMA 2193485, Venezuela 2020, Non-MDR): ≤ 0.25 µg/mL | MIC ([1]; A. baumannii IHMA 2193607, Venezuela 2020, MDR): 8 µg/mL | MIC ([1]; A. baumannii IHMA 2195460, Italy 2020, MDR): 16 µg/mL | MIC ([1]; A. baumannii IHMA 2196914, South Africa 2020, MDR): 16 µg/mL | MIC ([1]; A. baumannii IHMA 2196959, South Africa 2020, MDR): 4 µg/mL | MIC ([1]; A. baumannii IHMA 2203763, Spain 2020, MDR): > 16 µg/mL | MIC ([1]; A. baumannii IHMA 2205144, Korea, South 2020, MDR): 16 µg/mL | MIC ([1]; A. baumannii IHMA 2206459, Taiwan 2020, MDR): 16 µg/mL | MIC ([1]; A. baumannii IHMA 2206507, Taiwan 2020, Non-MDR): ≤ 0.25 µg/mL | MIC ([1]; A. baumannii IHMA 2212575, Hungary 2020, Non-MDR): ≤ 0.25 µg/mL | MIC ([1]; A. baumannii IHMA 2215307, Hong Kong 2020, Non-MDR): ≤ 0.25 µg/mL | MIC ([1]; A. baumannii IHMA 2216586, Taiwan 2020, MDR): 8 µg/mL | MIC ([1]; A. baumannii IHMA 2223200, Colombia 2020, Non-MDR): ≤ 0.25 µg/mL | MIC ([1]; A. baumannii IHMA 2224017, Panama 2020, MDR): 8 µg/mL | MIC ([1]; A. baumannii IHMA 2224303, Panama 2020, Non-MDR): ≤ 0.25 µg/mL | MIC ([1]; A. baumannii IHMA 2231797, Greece 2020, MDR): 8 µg/mL | MIC ([1]; A. baumannii IHMA 2233099, Guatemala 2020, MDR): 8 µg/mL | MIC ([1]; A. baumannii IHMA 2233430, Kazakhstan 2020, MDR): > 16 µg/mL | MIC ([1]; A. baumannii IHMA 2233548, Kazakhstan 2020, Non-MDR): ≤ 0.25 µg/mL | MIC ([1]; A. baumannii IHMA 2238964, Thailand 2020, MDR): 4 µg/mL | MIC ([1]; A. baumannii IHMA 2239052, Thailand 2020, Non-MDR): ≤ 0.25 µg/mL | MIC ([1]; A. baumannii IHMA 2261047, Belgium 2020, MDR): 8 µg/mL | MIC ([1]; A. baumannii IHMA 2261633, Canada 2020, Non-MDR): ≤ 0.25 µg/mL | MIC ([1]; A. baumannii IHMA 2274234, South Africa 2020, MDR): 8 µg/mL | MIC ([1]; A. baumannii IHMA 2274364, South Africa 2020, MDR): 16 µg/mL | MIC ([1]; A. baumannii IHMA 2275237, Chile 2020, Non-MDR): ≤ 0.25 µg/mL | MIC ([1]; A. baumannii IHMA 2275751, Jordan 2020, MDR): 8 µg/mL | MIC ([1]; A. baumannii IHMA 2316205, United States 2020, MDR): 16 µg/mL | MIC50 ([1]; MDR n = 50): 8 µg/mL | MIC90 ([1]; MDR n = 50): 16 µg/mL | MIC50 ([1]; all isolates n = 100): 0.5 µg/mL | MIC90 ([1]; all isolates n = 100): 16 µg/mL | MIC50 ([1]; non-MDR n = 50): ≤ 0.25 µg/mL | MIC90 ([1]; non-MDR n = 50): ≤ 0.25 µg/mL | MIC ([1]; read-out: MAX (maximum MIC), non-MDR n = 50): 0.5 µg/mL | MIC ([1]; read-out: MAX (maximum MIC; all strains inhibited), MDR n = 50): > 16 µg/mL | MIC ([1]; read-out: MAX (maximum MIC; all strains inhibited), all isolates n = 100): > 16 µg/mL | MIC ([1]; read-out: MIN (minimum MIC), MDR n = 50): 4 µg/mL | MIC ([1]; read-out: MIN (minimum MIC), all isolates n = 100): ≤ 0.25 µg/mL | MIC ([1]; read-out: MIN (minimum MIC), non-MDR n = 50): ≤ 0.25 µg/mL | Percentage I ([1]; MDR n = 50): 12% | Percentage R ([1]; MDR n = 50): 88% | Percentage S ([1]; MDR n = 50): 0% | Percentage I ([1]; all n = 100, CLSI breakpoints): 6% | Percentage R ([1]; all n = 100, CLSI breakpoints): 44% | Percentage S ([1]; all n = 100, CLSI breakpoints): 50% | Percentage I ([1]; non-MDR n = 50): 0% | Percentage R ([1]; non-MDR n = 50): 0% | Percentage S ([1]; non-MDR n = 50): 100% | MIC (P. aeruginosa ATCC 27853; Pseudomonas aeruginosa, ATCC27853, QC strain P. aeruginosa ATCC 27853, test date 2021-11-11): 2 µg/mL | MIC (P. aeruginosa ATCC 27853; Pseudomonas aeruginosa, ATCC27853, QC strain P. aeruginosa ATCC 27853, test date 2021-11-26): 1 µg/mL | MIC (P. aeruginosa ATCC 27853; QC strain P. aeruginosa ATCC 27853, test date 2021-11-11): 1 µg/mL | MIC (E. coli ATCC 35218): ≤ 0.25 µg/mL | MIC (A. baumannii ATCC 17978): ≤ 0.25 µg/mL | MIC (H. influenzae ATCC 49247; ATCC49247, QC strain H. influenzae ATCC 49247, test date 2021-11-11): 0.015 µg/mL | MIC (H. influenzae ATCC 49247; ATCC49247, QC strain H. influenzae ATCC 49247, test date 2021-11-26): 0.015 µg/mL | MIC (H. influenzae ATCC 49766; Haemophilus influenzae, ATCC49766): 0.015 µg/mL | MIC (H. influenzae ATCC 49766; QC strain H. influenzae ATCC 49766, test date 2021-11-26): 0.015 µg/mL | MIC (S. pneumoniae ATCC 49619; QC strain S. pneumoniae ATCC 49619, test date 2021-11-26): 0.5 µg/mL | MIC (S. pneumoniae ATCC 49619; Streptococcus pneumoniae, ATCC49619): 0.5 µg/mL
